Measurements published in the NIST ThermoML archive (doi:10.1021/acs.jced.5b01104).
± gives the expanded uncertainty stated by the source.

Details: Liquid, Chromatography

vapor or sublimation pressure (412.6 K): 356 ± 28 kPa
vapor or sublimation pressure (443.2 K): 792 ± 62 kPa
vapor or sublimation pressure (483.2 K): 1902 ± 150 kPa
Structure (SMILES): O [water]
